Assay results: ChEMBL document CHEMBL4507293 (2021); call rule not given here

How the values were obtained:
[1] = biological target: Vascular endothelial growth factor receptor 3 (Homo sapiens) (UniProt P35916); conditions: Compound concentration 100.0 nM
[2] = biological target: Ephrin type-B receptor 2 (Homo sapiens) (UniProt P29323); conditions: Compound concentration 100.0 nM
[3] = biological target: Phosphatidylinositol 4,5-bisphosphate 3-kinase catalytic subunit gamma isoform (Homo sapiens) (UniProt P48736); conditions: Compound concentration 100.0 nM
[4] = biological target: Mitogen-activated protein kinase kinase kinase 9 (Homo sapiens) (UniProt P80192); conditions: Compound concentration 100.0 nM
[5] = biological target: Serine/threonine-protein kinase DCLK2 (Homo sapiens) (UniProt Q8N568); conditions: Compound concentration 100.0 nM
[6] = biological target: Serine/threonine-protein kinase PLK1 (Homo sapiens) (UniProt P53350); conditions: Compound concentration 100.0 nM
[7] = biological target: Platelet-derived growth factor receptor alpha (Homo sapiens) (UniProt P16234); conditions: Compound concentration 100.0 nM
[8] = biological target: Serine/threonine-protein kinase 32A (Homo sapiens) (UniProt Q8WU08); conditions: Compound concentration 100.0 nM
[9] = biological target: Dual specificity protein kinase CLK3 (Homo sapiens) (UniProt P49761); conditions: Compound concentration 100.0 nM
[10] = system: Tyrosine-protein kinase ABL1 (Homo sapiens), P00519 [F317L]; conditions: Compound concentration 100.0 nM
Chain of Tyrosine-protein kinase ABL1 (Homo sapiens), P00519 [F317L] (P00519 whole entry F317L): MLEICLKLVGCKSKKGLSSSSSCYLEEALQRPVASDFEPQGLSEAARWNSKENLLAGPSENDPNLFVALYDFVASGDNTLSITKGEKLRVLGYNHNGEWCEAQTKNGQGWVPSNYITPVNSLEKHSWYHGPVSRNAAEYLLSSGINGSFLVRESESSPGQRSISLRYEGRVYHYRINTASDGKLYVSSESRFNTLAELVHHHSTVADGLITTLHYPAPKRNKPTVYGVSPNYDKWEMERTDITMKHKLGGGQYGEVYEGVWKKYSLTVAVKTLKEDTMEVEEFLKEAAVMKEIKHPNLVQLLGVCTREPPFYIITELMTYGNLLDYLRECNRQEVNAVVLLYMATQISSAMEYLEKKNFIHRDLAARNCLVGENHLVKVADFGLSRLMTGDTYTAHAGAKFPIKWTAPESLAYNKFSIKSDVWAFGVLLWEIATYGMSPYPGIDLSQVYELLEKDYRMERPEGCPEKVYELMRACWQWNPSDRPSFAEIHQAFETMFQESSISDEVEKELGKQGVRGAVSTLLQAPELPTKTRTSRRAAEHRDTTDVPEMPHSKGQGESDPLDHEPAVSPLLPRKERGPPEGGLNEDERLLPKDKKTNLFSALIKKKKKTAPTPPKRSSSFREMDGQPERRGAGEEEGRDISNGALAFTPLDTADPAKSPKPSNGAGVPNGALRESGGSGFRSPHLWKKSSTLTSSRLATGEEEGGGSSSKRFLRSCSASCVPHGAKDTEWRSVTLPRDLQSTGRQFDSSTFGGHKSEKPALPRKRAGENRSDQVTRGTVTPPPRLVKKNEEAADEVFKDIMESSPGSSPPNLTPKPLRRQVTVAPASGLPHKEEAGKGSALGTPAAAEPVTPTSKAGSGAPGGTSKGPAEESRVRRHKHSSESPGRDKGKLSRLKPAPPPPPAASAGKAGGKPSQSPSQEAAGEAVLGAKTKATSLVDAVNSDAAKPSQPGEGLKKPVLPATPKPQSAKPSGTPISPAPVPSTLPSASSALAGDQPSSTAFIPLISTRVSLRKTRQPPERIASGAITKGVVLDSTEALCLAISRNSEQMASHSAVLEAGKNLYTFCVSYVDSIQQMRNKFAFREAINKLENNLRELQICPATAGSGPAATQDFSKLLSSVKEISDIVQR

[11] = biological target: Serine/threonine-protein kinase WNK2 (Homo sapiens) (UniProt Q9Y3S1); conditions: Compound concentration 100.0 nM
[12] = biological target: Beta-3 adrenergic receptor (Homo sapiens) (UniProt P13945); conditions: Compound concentration 10.0 uM
[13] = biological target: Serine/threonine-protein kinase SIK3 (Homo sapiens) (UniProt Q9Y2K2); conditions: Compound concentration 100.0 nM
[14] = biological target: Ribosomal protein S6 kinase alpha-2 (Homo sapiens) (UniProt Q15349); conditions: Compound concentration 100.0 nM
Chain of Ribosomal protein S6 kinase alpha-2 (Homo sapiens) (Q15349 whole entry, canonical isoform): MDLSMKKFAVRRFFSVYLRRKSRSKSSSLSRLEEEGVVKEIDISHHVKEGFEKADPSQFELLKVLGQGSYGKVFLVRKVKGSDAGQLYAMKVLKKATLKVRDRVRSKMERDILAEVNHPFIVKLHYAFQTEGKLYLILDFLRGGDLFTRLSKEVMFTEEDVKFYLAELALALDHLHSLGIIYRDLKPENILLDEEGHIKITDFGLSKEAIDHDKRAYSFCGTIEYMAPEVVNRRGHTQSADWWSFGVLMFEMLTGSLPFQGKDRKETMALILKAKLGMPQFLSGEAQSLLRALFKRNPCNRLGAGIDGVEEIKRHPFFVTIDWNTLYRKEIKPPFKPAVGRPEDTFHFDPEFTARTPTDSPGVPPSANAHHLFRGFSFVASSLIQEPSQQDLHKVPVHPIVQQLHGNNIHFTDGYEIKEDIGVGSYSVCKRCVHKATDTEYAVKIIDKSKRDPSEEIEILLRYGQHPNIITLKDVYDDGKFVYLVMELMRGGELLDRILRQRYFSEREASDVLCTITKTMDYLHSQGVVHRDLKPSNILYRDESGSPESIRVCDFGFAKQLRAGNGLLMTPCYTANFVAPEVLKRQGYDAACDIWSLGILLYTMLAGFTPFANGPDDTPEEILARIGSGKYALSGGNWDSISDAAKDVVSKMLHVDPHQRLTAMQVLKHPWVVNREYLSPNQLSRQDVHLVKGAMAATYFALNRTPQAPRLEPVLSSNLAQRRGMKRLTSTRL

[15] = system: Phosphatidylinositol 4,5-bisphosphate 3-kinase catalytic subunit alpha isoform (Homo sapiens), P42336 [E545K]; conditions: Compound concentration 100.0 nM
[16] = biological target: Serine/threonine-protein kinase WNK4 (Homo sapiens) (UniProt Q96J92); conditions: Compound concentration 100.0 nM
[17] = biological target: Bone morphogenetic protein receptor type-2 (Homo sapiens) (UniProt Q13873); conditions: Compound concentration 100.0 nM
Chain of Bone morphogenetic protein receptor type-2 (Homo sapiens) (Q13873 whole entry): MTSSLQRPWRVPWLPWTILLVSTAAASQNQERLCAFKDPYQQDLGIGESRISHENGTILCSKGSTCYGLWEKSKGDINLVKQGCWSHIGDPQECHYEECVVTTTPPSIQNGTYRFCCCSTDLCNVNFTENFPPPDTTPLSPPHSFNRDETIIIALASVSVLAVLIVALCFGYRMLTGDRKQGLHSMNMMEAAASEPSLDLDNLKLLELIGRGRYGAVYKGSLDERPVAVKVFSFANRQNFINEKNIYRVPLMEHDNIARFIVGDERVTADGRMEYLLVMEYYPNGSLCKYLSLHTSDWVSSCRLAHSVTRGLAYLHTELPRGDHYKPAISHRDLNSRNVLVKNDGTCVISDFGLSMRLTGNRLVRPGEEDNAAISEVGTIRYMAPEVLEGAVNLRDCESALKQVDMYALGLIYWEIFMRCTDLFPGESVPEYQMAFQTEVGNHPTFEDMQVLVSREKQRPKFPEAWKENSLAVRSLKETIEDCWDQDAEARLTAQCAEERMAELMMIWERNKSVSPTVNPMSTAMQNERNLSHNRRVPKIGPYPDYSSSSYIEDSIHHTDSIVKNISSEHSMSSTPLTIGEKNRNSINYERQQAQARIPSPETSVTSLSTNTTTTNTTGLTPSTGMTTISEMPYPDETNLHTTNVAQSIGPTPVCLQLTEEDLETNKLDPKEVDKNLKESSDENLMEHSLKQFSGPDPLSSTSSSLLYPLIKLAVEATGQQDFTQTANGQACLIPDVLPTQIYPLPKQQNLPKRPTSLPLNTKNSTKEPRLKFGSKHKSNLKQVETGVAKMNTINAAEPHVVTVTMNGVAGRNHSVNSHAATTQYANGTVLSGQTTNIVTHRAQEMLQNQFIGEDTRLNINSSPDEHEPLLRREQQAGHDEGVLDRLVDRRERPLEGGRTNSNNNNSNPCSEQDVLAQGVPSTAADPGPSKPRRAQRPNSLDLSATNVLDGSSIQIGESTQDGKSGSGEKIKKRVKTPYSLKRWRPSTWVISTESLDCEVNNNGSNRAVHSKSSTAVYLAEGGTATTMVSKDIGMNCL

[18] = system: Tyrosine-protein kinase ABL1 (Homo sapiens), P00519 [F317I]; conditions: Compound concentration 100.0 nM
Chain of Tyrosine-protein kinase ABL1 (Homo sapiens), P00519 [F317I] (P00519 whole entry F317I): as the sequence (P00519 whole entry F317L) above, with L317I counted along it

[19] = system: Mast/stem cell growth factor receptor Kit (Homo sapiens), P10721 [D816V]; conditions: Compound concentration 100.0 nM
[20] = biological target: Serine/threonine-protein kinase TBK1 (Homo sapiens) (UniProt Q9UHD2); conditions: Compound concentration 100.0 nM
Chain of Serine/threonine-protein kinase TBK1 (Homo sapiens) (Q9UHD2 whole entry): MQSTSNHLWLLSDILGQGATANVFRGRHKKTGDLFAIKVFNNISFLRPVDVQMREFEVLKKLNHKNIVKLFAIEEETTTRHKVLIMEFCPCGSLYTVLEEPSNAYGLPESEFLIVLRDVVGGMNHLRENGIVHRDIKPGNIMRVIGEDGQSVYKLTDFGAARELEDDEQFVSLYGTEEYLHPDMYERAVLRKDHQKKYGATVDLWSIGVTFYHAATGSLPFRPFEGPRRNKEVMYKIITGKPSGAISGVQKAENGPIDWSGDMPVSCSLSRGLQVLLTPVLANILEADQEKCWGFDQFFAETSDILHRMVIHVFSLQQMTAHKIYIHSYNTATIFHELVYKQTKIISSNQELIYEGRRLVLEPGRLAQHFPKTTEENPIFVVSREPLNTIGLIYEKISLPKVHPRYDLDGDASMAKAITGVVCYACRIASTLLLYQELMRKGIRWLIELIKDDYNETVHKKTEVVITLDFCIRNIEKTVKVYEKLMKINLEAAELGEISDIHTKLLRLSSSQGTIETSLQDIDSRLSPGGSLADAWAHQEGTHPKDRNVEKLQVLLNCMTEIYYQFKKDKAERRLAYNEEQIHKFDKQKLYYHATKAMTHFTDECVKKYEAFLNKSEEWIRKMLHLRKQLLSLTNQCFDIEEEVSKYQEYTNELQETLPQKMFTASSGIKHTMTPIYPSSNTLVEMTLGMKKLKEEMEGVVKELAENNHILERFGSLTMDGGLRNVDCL

[21] = biological target: RAC-beta serine/threonine-protein kinase (Homo sapiens) (UniProt P31751); conditions: Compound concentration 100.0 nM
[22] = biological target: RAF proto-oncogene serine/threonine-protein kinase (Homo sapiens) (UniProt P04049); conditions: Compound concentration 100.0 nM
Chain of RAF proto-oncogene serine/threonine-protein kinase (Homo sapiens) (P04049 whole entry): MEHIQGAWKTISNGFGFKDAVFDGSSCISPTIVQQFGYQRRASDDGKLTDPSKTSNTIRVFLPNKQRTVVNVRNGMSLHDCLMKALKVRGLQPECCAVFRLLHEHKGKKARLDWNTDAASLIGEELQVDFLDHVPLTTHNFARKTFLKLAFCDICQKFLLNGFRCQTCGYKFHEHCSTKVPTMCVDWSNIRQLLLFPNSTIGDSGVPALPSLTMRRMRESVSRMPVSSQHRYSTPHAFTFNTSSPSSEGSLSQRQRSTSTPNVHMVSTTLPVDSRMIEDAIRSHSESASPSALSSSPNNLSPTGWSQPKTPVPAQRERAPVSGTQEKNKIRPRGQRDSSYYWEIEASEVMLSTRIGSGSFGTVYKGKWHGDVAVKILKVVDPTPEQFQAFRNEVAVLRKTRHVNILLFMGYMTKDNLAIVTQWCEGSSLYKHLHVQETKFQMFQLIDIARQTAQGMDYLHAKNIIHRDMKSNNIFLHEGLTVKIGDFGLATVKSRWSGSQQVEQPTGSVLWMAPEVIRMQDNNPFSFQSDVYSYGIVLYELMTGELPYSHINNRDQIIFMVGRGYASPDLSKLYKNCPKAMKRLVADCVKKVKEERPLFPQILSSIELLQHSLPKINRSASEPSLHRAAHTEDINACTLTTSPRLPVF

[23] = biological target: High affinity 3',5'-cyclic-AMP phosphodiesterase 7A (Homo sapiens, UniProt Q13946); assay: Biochemical assay (PDE7A)
[24] = system: Tyrosine-protein kinase ABL1 (Homo sapiens), P00519 [F317I]; conditions: Compound concentration 100.0 nM; remark: listed apart in the source
[25] = biological target: Serine/threonine-protein kinase 32B (Homo sapiens) (UniProt Q9NY57); conditions: Compound concentration 100.0 nM
[26] = biological target: NT-3 growth factor receptor (Homo sapiens) (UniProt Q16288); conditions: Compound concentration 100.0 nM
[27] = biological target: Serine/threonine-protein kinase tousled-like 2 (Homo sapiens) (UniProt Q86UE8); conditions: Compound concentration 100.0 nM
[28] = biological target: Serine/threonine-protein kinase PAK 3 (Homo sapiens) (UniProt O75914); conditions: Compound concentration 100.0 nM
[29] = biological target: RAC-gamma serine/threonine-protein kinase (Homo sapiens) (UniProt Q9Y243); conditions: Compound concentration 100.0 nM
[30] = system: Hepatocyte growth factor receptor (Homo sapiens), P08581 [M1250T]; conditions: Compound concentration 100.0 nM
[31] = biological target: Serine/threonine-protein kinase D3 (Homo sapiens) (UniProt O94806); conditions: Compound concentration 100.0 nM
[32] = biological target: Protein kinase C eta type (Homo sapiens) (UniProt P24723); conditions: Compound concentration 100.0 nM
[33] = biological target: Focal adhesion kinase 1 (Homo sapiens) (UniProt Q05397); conditions: Compound concentration 100.0 nM
[34] = system: Proto-oncogene tyrosine-protein kinase receptor Ret (Homo sapiens), P07949 [M918T]; conditions: Compound concentration 100.0 nM
[35] = biological target: MAP kinase-activated protein kinase 2 (Homo sapiens) (UniProt P49137); conditions: Compound concentration 100.0 nM
[36] = biological target: Protein kinase C delta type (Homo sapiens) (UniProt Q05655); conditions: Compound concentration 100.0 nM
Chain of Protein kinase C delta type (Homo sapiens) (Q05655 whole entry, looked up): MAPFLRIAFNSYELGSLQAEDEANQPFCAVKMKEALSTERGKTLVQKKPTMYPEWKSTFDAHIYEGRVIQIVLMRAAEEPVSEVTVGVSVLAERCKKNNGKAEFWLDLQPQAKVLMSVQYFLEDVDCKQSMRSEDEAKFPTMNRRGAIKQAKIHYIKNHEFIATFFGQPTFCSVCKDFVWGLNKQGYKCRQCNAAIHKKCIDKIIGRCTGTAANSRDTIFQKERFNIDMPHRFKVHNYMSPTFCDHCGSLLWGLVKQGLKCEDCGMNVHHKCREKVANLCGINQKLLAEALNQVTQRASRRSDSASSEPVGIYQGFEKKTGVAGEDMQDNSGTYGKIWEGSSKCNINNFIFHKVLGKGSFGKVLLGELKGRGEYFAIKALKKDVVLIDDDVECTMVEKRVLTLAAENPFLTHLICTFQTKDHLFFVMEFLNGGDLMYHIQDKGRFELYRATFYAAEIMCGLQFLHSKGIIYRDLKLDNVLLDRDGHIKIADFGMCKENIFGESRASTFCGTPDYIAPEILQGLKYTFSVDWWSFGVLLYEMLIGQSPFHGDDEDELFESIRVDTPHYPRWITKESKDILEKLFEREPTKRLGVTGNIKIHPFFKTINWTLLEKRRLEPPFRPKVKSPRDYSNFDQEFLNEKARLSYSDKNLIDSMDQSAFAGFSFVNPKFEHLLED

[37] = biological target: Cyclin-dependent kinase 11A (Homo sapiens) (UniProt Q9UQ88); conditions: Compound concentration 100.0 nM
[38] = biological target: SRSF protein kinase 1 (Homo sapiens) (UniProt Q96SB4); conditions: Compound concentration 100.0 nM
[39] = system: Mast/stem cell growth factor receptor Kit (Homo sapiens), P10721 [V559D,T670I]; conditions: Compound concentration 100.0 nM
[40] = biological target: Tyrosine-protein kinase TXK (Homo sapiens) (UniProt P42681); conditions: Compound concentration 100.0 nM
[41] = biological target: Mitogen-activated protein kinase kinase kinase 4 (Homo sapiens) (UniProt Q9Y6R4); conditions: Compound concentration 100.0 nM
[42] = biological target: SRSF protein kinase 3 (Homo sapiens) (UniProt Q9UPE1); conditions: Compound concentration 100.0 nM
[43] = biological target: Transient receptor potential cation channel subfamily M member 6 (Homo sapiens) (UniProt Q9BX84); conditions: Compound concentration 100.0 nM
[44] = biological target: Bone morphogenetic protein receptor type-1B (Homo sapiens) (UniProt O00238); conditions: Compound concentration 100.0 nM
[45] = biological target: Proto-oncogene tyrosine-protein kinase ROS (Homo sapiens) (UniProt P08922); conditions: Compound concentration 100.0 nM

Structure (SMILES): CC(C)CC(=O)N1CCc2nc(-c3ccc(Br)cc3)nc(N(C)Cc3ccccc3)c2C1 [THPP-1-NC]
- residual activity [1]: 100%
- residual activity [2]: 80%
- residual activity [3]: 100%
- residual activity [4]: 91%
- residual activity [5]: 100%
- residual activity [6]: 100%
- residual activity [7]: 98%
- residual activity [8]: 94%
- residual activity [9]: 100%
- residual activity [10]: 100%
- residual activity [11]: 100%
- inhibition [12]: 12.3%
- residual activity [13]: 100%
- residual activity [14]: 100%
- residual activity [15]: 85%
- residual activity [16]: 100%
- residual activity [17]: 99%
- residual activity [18]: 100%
- residual activity [19]: 100%
- residual activity [20]: 75%
- residual activity [21]: 100%
- residual activity [22]: 100%
- Ki [23]: > 25.3 µM (not active)
- residual activity [24]: 100%
- residual activity [25]: 87%
- residual activity [26]: 100%
- residual activity [27]: 100%
- residual activity [28]: 100%
- residual activity [29]: 64%
- residual activity [30]: 70%
- residual activity [31]: 100%
- residual activity [32]: 94%
- residual activity [33]: 92%
- residual activity [34]: 100%
- residual activity [35]: 92%
- residual activity [36]: 100%
- residual activity [37]: 100%
- residual activity [38]: 99%
- residual activity [39]: 95%
- residual activity [40]: 100%
- residual activity [41]: 100%
- residual activity [42]: 79%
- residual activity [43]: 100%
- residual activity [44]: 100%
- residual activity [45]: 100%

Structure (SMILES): COCCOc1nc(-c2ccc(Cl)nc2)nc2c1CN(C(=O)c1ncn3ccccc13)CC2 [THPP-1]
- residual activity [1]: 88%
- residual activity [2]: 79%
- residual activity [3]: 100%
- residual activity [4]: 100%
- residual activity [5]: 100%
- residual activity [6]: 100%
- residual activity [7]: 100%
- residual activity [8]: 83%
- residual activity [9]: 100%
- residual activity [10]: 100%
- residual activity [11]: 100%
- inhibition [12]: 1.51%
- residual activity [13]: 100%
- residual activity [14]: 100%
- residual activity [15]: 71%
- residual activity [16]: 100%
- residual activity [17]: 100%
- residual activity [18]: 100%
- residual activity [19]: 100%
- residual activity [20]: 68%
- residual activity [21]: 100%
- residual activity [22]: 97%
- Ki [23]: 11.2 µM (not active)
- residual activity [24]: 100%
- residual activity [25]: 100%
- residual activity [26]: 100%
- residual activity [27]: 100%
- residual activity [28]: 100%
- residual activity [29]: 47%
- residual activity [30]: 71%
- residual activity [31]: 94%
- residual activity [32]: 97%
- residual activity [33]: 99%
- residual activity [34]: 90%
- residual activity [35]: 73%
- residual activity [36]: 100%
- residual activity [37]: 100%
- residual activity [38]: 86%
- residual activity [39]: 100%
- residual activity [40]: 100%
- residual activity [41]: 100%
- residual activity [42]: 66%
- residual activity [43]: 100%
- residual activity [44]: 100%
- residual activity [45]: 100%
